Measured values taken from PubChem BioAssay (NCI).
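Cells were grown in 96-well plates and exposed to each compound for 48 hours at five concentrations; endpoints were interpolated linearly between bracketing concentrations, or set to the highest concentration if not reached. The concentration for 50% growth inhibition is given as GI50. TGI: total growth inhibition.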

Columns and labels:
Experiment in all cases: NCI-60 cell line screen, 48 h
HT29 colon = system: HT29 colon
OVCAR-3 ovarian = system: OVCAR-3 ovarian
LOX IMVI melanoma = system: LOX IMVI melanoma
OVCAR-8 ovarian = system: OVCAR-8 ovarian
SF-295 CNS = system: SF-295 CNS
KM12 colon = system: KM12 colon
UACC-257 melanoma = system: UACC-257 melanoma
RXF 393 renal = system: RXF 393 renal
SK-OV-3 ovarian = system: SK-OV-3 ovarian
SW-620 colon = system: SW-620 colon
SK-MEL-28 melanoma = system: SK-MEL-28 melanoma
A549 NSCLC = system: A549 NSCLC
UACC-62 melanoma = system: UACC-62 melanoma
MDA-MB-468 breast = system: MDA-MB-468 breast
MOLT-4 leukemia = system: MOLT-4 leukemia
HCT-15 colon = system: HCT-15 colon
NCI/ADR-RES ovarian = system: NCI/ADR-RES ovarian
SF-539 CNS = system: SF-539 CNS
MDA-MB-435 = system: MDA-MB-435
T-47D breast = system: T-47D breast
NCI-H23 lung = system: NCI-H23 lung
TK-10 renal = system: TK-10 renal
BT-549 breast = system: BT-549 breast
HCC-2998 colon = system: HCC-2998 colon
SF-268 CNS = system: SF-268 CNS
MALME-3M melanoma = system: MALME-3M melanoma
MCF7 breast = system: MCF7 breast
SK-MEL-2 melanoma = system: SK-MEL-2 melanoma
SNB-19 CNS = system: SNB-19 CNS
PC-3 prostate = system: PC-3 prostate
K-562 leukemia = system: K-562 leukemia
CCRF-CEM leukemia = system: CCRF-CEM leukemia
U251 CNS = system: U251 CNS
SN12C renal = system: SN12C renal
OVCAR-5 ovarian = system: OVCAR-5 ovarian
IGROV1 ovarian = system: IGROV1 ovarian
SK-MEL-5 melanoma = system: SK-MEL-5 melanoma
HL-60(TB) leukemia = system: HL-60(TB) leukemia
HOP-62 NSCLC = system: HOP-62 NSCLC
M14 melanoma = system: M14 melanoma
SR leukemia = system: SR leukemia
NCI-H522 lung = system: NCI-H522 lung
COLO 205 colon = system: COLO 205 colon
HCT-116 colon = system: HCT-116 colon
ACHN renal = system: ACHN renal
OVCAR-4 ovarian = system: OVCAR-4 ovarian
RPMI-8226 leukemia = system: RPMI-8226 leukemia
HOP-92 NSCLC = system: HOP-92 NSCLC
SNB-75 CNS = system: SNB-75 CNS
A498 renal = system: A498 renal
DU-145 prostate = system: DU-145 prostate
NCI-H226 lung = system: NCI-H226 lung
HS 578T breast = system: HS 578T breast
EKVX NSCLC = system: EKVX NSCLC
NCI-H460 lung = system: NCI-H460 lung
CAKI-1 renal = system: CAKI-1 renal
MDA-MB-231 breast = system: MDA-MB-231 breast
786-0 renal = system: 786-0 renal
UO-31 renal = system: UO-31 renal

O=C(N/N=C/c1ccc(-c2ccc(O)cc2)o1)c1[nH]c2ccc(Br)cc2c1-c1ccccc1
GI50 (HT29 colon): 1920 nM | TGI (HT29 colon): 7020 nM | GI50 (OVCAR-3 ovarian): 275 nM | TGI (OVCAR-3 ovarian): 873 nM | GI50 (LOX IMVI melanoma): 356 nM | TGI (LOX IMVI melanoma): 3220 nM | GI50 (OVCAR-8 ovarian): 363 nM | TGI (OVCAR-8 ovarian): 900 nM | GI50 (SF-295 CNS): 611 nM | TGI (SF-295 CNS): 2900 nM | GI50 (KM12 colon): 355 nM | TGI (KM12 colon): 4510 nM | GI50 (UACC-257 melanoma): 4690 nM | TGI (UACC-257 melanoma): 23100 nM | GI50 (RXF 393 renal): 414 nM | TGI (RXF 393 renal): 2180 nM | GI50 (SK-OV-3 ovarian): 493 nM | TGI (SK-OV-3 ovarian): 16800 nM | GI50 (SW-620 colon): 444 nM | TGI (SW-620 colon): 16100 nM | GI50 (SK-MEL-28 melanoma): 1960 nM | TGI (SK-MEL-28 melanoma): 18000 nM | GI50 (A549 NSCLC): 987 nM | TGI (A549 NSCLC): 16200 nM | GI50 (UACC-62 melanoma): 527 nM | TGI (UACC-62 melanoma): 15100 nM | GI50 (MDA-MB-468 breast): 318 nM | TGI (MDA-MB-468 breast): 2660 nM | GI50 (MOLT-4 leukemia): 531 nM | TGI (MOLT-4 leukemia): 5040 nM | GI50 (HCT-15 colon): 354 nM | TGI (HCT-15 colon): 5300 nM | GI50 (NCI/ADR-RES ovarian): 292 nM | TGI (NCI/ADR-RES ovarian): 592 nM | GI50 (SF-539 CNS): 240 nM | TGI (SF-539 CNS): 536 nM | GI50 (MDA-MB-435): 248 nM | TGI (MDA-MB-435): 602 nM | GI50 (T-47D breast): 2670 nM | TGI (T-47D breast): 26500 nM | GI50 (NCI-H23 lung): 378 nM | TGI (NCI-H23 lung): 12700 nM | GI50 (TK-10 renal): 4560 nM | TGI (TK-10 renal): 19600 nM | GI50 (BT-549 breast): 415 nM | TGI (BT-549 breast): 3740 nM | GI50 (HCC-2998 colon): 860 nM | TGI (HCC-2998 colon): 3670 nM | GI50 (SF-268 CNS): 654 nM | TGI (SF-268 CNS): 12700 nM | GI50 (MALME-3M melanoma): 2580 nM | TGI (MALME-3M melanoma): 22400 nM | GI50 (MCF7 breast): 332 nM | TGI (MCF7 breast): 6660 nM | GI50 (SK-MEL-2 melanoma): 378 nM | TGI (SK-MEL-2 melanoma): 3680 nM | GI50 (SNB-19 CNS): 577 nM | TGI (SNB-19 CNS): 14600 nM | GI50 (PC-3 prostate): 569 nM | TGI (PC-3 prostate): 14100 nM | GI50 (K-562 leukemia): 371 nM | TGI (K-562 leukemia): 17900 nM | GI50 (CCRF-CEM leukemia): 474 nM | TGI (CCRF-CEM leukemia): 26900 nM | GI50 (U251 CNS): 419 nM | TGI (U251 CNS): 10300 nM | GI50 (SN12C renal): 417 nM | TGI (SN12C renal): 2870 nM | GI50 (OVCAR-5 ovarian): 515 nM | TGI (OVCAR-5 ovarian): 13800 nM | GI50 (IGROV1 ovarian): 617 nM | TGI (IGROV1 ovarian): 17800 nM | GI50 (SK-MEL-5 melanoma): 472 nM | TGI (SK-MEL-5 melanoma): 1690 nM | GI50 (HL-60(TB) leukemia): 257 nM | TGI (HL-60(TB) leukemia): 713 nM | GI50 (HOP-62 NSCLC): 870 nM | TGI (HOP-62 NSCLC): 19200 nM | GI50 (M14 melanoma): 3330 nM | TGI (M14 melanoma): 22800 nM | GI50 (SR leukemia): 490 nM | TGI (SR leukemia): 3230 nM | GI50 (NCI-H522 lung): 208 nM | TGI (NCI-H522 lung): 519 nM | GI50 (COLO 205 colon): 1900 nM | TGI (COLO 205 colon): 3930 nM | GI50 (HCT-116 colon): 393 nM | TGI (HCT-116 colon): 3550 nM | GI50 (ACHN renal): 500 nM | TGI (ACHN renal): 8070 nM | GI50 (OVCAR-4 ovarian): 3560 nM | TGI (OVCAR-4 ovarian): 20800 nM | GI50 (RPMI-8226 leukemia): 442 nM | TGI (RPMI-8226 leukemia): > 22200 nM | GI50 (HOP-92 NSCLC): 2750 nM | TGI (HOP-92 NSCLC): 11200 nM | GI50 (SNB-75 CNS): 3130 nM | TGI (SNB-75 CNS): 20000 nM | GI50 (A498 renal): 8210 nM | TGI (A498 renal): 21900 nM | GI50 (DU-145 prostate): 366 nM | TGI (DU-145 prostate): 3850 nM | GI50 (NCI-H226 lung): 2950 nM | TGI (NCI-H226 lung): 22400 nM | GI50 (HS 578T breast): 410 nM | TGI (HS 578T breast): 1290 nM | GI50 (EKVX NSCLC): 3440 nM | TGI (EKVX NSCLC): 15200 nM | GI50 (NCI-H460 lung): 342 nM | TGI (NCI-H460 lung): 1270 nM | GI50 (CAKI-1 renal): 969 nM | TGI (CAKI-1 renal): 15500 nM | GI50 (MDA-MB-231 breast): 323 nM | TGI (MDA-MB-231 breast): 790 nM | GI50 (786-0 renal): 1550 nM | TGI (786-0 renal): 8430 nM | GI50 (UO-31 renal): 2050 nM | TGI (UO-31 renal): 16200 nM
